Measured values published in US8735411B2, “Macrocyclic benzofused pyrimidine derivatives” (AbbVie Inc., priority 2006, dated 2014).

Target: histamine H4 receptor (Homo sapiens, UniProt Q9H3N8)
Test: In vitro histamine H4 potency in FLIPR (Ca2+ flux, HEK-293 cells coexpressing Gαqi5)
Format: cell-based
Design: expressed in transfected cells
Details: Kb for antagonists and inverse agonists, EC50 for partial agonists
Text: There are many methods available to show the effectiveness of compounds as histamine H4 receptor ligands. Histamine H4 receptors from mammalian species have been cloned. Methods to clone, express, and assess the potency and functional activity of such cloned genes are well known to those skilled in the art of molecular biology. […] Before testing, cells are loaded with a Ca^+2 sensitive fluorescent dye, in this case Fluo-4. In the case of partial agonist or agonist ligands, addition of compound to the cells leads to the increase in intracellular Ca^+2 which is detected by FLIPR (Fluorescence Imaging Plate Reader; Molecular Devices, Sunnyvale, Calif.) technology. […] The fluorescence intensities measured before addition of the test compound are subtracted from the fluorescence intensities at later time points. Peak response values determined at each concentration of ligand are expressed as a percentage of the response obtained with the full agonist histamine. Concentration versus response data are analyzed to obtain compound potency as Kb values for antagonists and inverse agonists and as EC50 values for partial agonists.

| Compound | Potency [nM] |
| --- | --- |
| CNC1CN(c2nc(N)nc3c2CCSc2ccccc2-3)C1 [Example 33, 4-(3-Methylamino-azetidin-1-yl)-5,6-dihydro-7-thia-1,3-diaza-dibenzo[a,c]cyclohepten-2-ylamine] | 13 |
| CN[C@@H]1CCN(c2nc(N)nc3c2CCSc2ccccc2-3)C1 [Example 34, 4-(3-(R)-Methylamino-pyrrolidin-1-yl)-5,6-dihydro-7-thia-1,3-diaza-dibenzo[a,c]cyclohepten-2-ylamine] | 4.2 |
| Nc1nc2c(c(N3CC[C@@H](N)C3)n1)CCSc1ccccc1-2 [Example 35, 4-(3-(R)-Amino-pyrrolidin-1-yl)-5,6-dihydro-7-thia-1,3-diaza-dibenzo[a,c]cyclohepten-2-ylamine] | 891 |
| Nc1nc2c(c(N3CCNCC3)n1)CCSc1ccccc1-2 [Example 36, 4-Piperazin-1-yl-5,6-dihydro-7-thia-1,3-diaza-dibenzo[a,c]cyclohepten-2-ylamine] | 39 |
| CNC1CN(c2nc(N)nc3c2CC[S+]([O-])c2ccccc2-3)C1 (centres unmarked) [Example 37, 4-(3-Methylamino-azetidin-1-yl)-7-oxo-6,7-dihydro-5H-7λ4-thia-1,3-diaza-dibenzo[a,c]cyclohepten-2-ylamine] | 537 |
| CNC1CN(c2nc(N)nc3c2CCS(=O)(=O)c2ccccc2-3)C1 [Example 38, 4-(3-Methylamino-azetidin-1-yl)-7,7-dioxo-6,7-dihydro-5H-7λ6-thia-1,3-diaza-dibenzo[a,c]cyclohepten-2-ylamine] | 5754 |
| CN1CCN(c2nc(N)nc3c2OCc2ccccc2-3)CC1 [Example 41, 1-(4-Methyl-piperazin-1-yl)-9H-10-oxa-2,4-diaza-phenanthren-3-ylamine] | 50 |
| CN[C@@H]1CCN(c2nc(N)nc3c2CCOc2ccc(Cl)cc2-3)C1 [Example 45, 10-chloro-4-[(3R)-3-(methylamino)pyrrolidin-1-yl]-5,6-dihydro[1]benzoxepino[5,4-d]pyrimidin-2-amine] | 69 |
| CN[C@@H]1CCN(c2nc(N)nc3c2CCOc2ccc(C)cc2-3)C1 [Example 46, 10-methyl-4-[(3R)-3-(methylamino)pyrrolidin-1-yl]-5,6-dihydro[1]benzoxepino[5,4-d]pyrimidin-2-amine] | 100 |
| CN[C@@H]1CCN(c2nc(N)nc3c2CCOc2ccc(OC)cc2-3)C1 [Example 47, 10-methoxy-4-[(3R)-3-(methylamino)pyrrolidin-1-yl]-5,6-dihydro[1]benzoxepino[5,4-d]pyrimidin-2-amine] | 912 |
| CN[C@@H]1CCN(c2nc(N)nc3c2CCOc2cc(Cl)ccc2-3)C1 [Example 48, 9-chloro-4-[(3R)-3-(methylamino)pyrrolidin-1-yl]-5,6-dihydro[1]benzoxepino[5,4-d]pyrimidin-2-amine] | 43 |
| CN[C@@H]1CCN(c2nc(N)nc3c2CCOc2cc(C)ccc2-3)C1 [Example 49, 9-methyl-4-[(3R)-3-(methylamino)pyrrolidin-1-yl]-5,6-dihydro[1]benzoxepino[5,4-d]pyrimidin-2-amine] | 39 |
| CN[C@@H]1CCN(c2nc(N)nc3c2CCOc2cc(OC)ccc2-3)C1 [Example 50, 9-methoxy-4-[(3R)-3-(methylamino)pyrrolidin-1-yl]-5,6-dihydro[1]benzoxepino[5,4-d]pyrimidin-2-amine] | 56 |
| CN[C@@H]1CCN(c2nc(N)nc3c2CCOc2c(Cl)cccc2-3)C1 [Example 51, 8-chloro-4-[(3R)-3-(methylamino)pyrrolidin-1-yl]-5,6-dihydro[1]benzoxepino[5,4-d]pyrimidin-2-amine] | 41 |
| CN[C@@H]1CCN(c2nc(N)nc3c2CCOc2c(C)cccc2-3)C1 [Example 52, 8-Methyl-4-((R)-3-methylamino-pyrrolidin-1-yl)-5,6-dihydro-7-oxa-1,3-diaza-dibenzo[a,c]cyclohepten-2-ylamine] | 56 |
| CN[C@@H]1CCN(c2nc(N)nc3c2CCOc2c(OC)cccc2-3)C1 [Example 53, 8-methoxy-4-[(3R)-3-(methylamino)pyrrolidin-1-yl]-5,6-dihydro[1]benzoxepino[5,4-d]pyrimidin-2-amine] | 100 |
| CN1[C@@H]2CC[C@H]1CC(Nc1nc(N)nc3c1CCCc1ccccc1-3)C2 (stereo partly drawn) [Example 66, N^4-[(1R,5S)-8-methyl-8-azabicyclo[3.2.1]oct-3-yl]-6,7-dihydro-5H-benzo[6,7]cyclohepta[1,2-d]pyrimidine-2,4-diamine] | 17 |

Further lines, results first:

| Potency [nM] | Compound |
| --- | --- |
| 22 | CN[C@@H]1CCN(c2nc(N)nc3c2CCc2ccccc2-3)C1 [Example 39, 4-(3-(R)-Methylamino-pyrrolidin-1-yl)-5,6-dihydro-benzo[h]quinazolin-2-ylamine] |
| 34 | CNC1CN(c2nc(N)nc3c2CCc2ccccc2-3)C1 [Example 40, 4-(3-Methylamino-azetidin-1-yl)-5,6-dihydro-benzo[h]quinazolin-2-ylamine] |
| 13 | CN1CCN(c2nc(N)nc3c2CCc2ccccc2-3)CC1 [Example 42, 4-(4-Methyl-piperazin-1-yl)-5,6-dihydro-benzo[h]quinazolin-2-ylamine] |
| 24 | Nc1nc2c(c(N3CCNCC3)n1)CCc1ccccc1-2 [Example 44, 4-Piperazin-1-yl-5,6-dihydro-benzo[h]quinazolin-2-ylamine] |
| 32 | CN[C@@H]1CCN(c2nc(N)nc3c2CCCCc2ccccc2-3)C1 [Example 54, 4-[(3R)-3-(methylamino)pyrrolidin-1-yl]-5,6,7,8-tetrahydrobenzo[7,8]cycloocta[1,2-d]pyrimidin-2-amine] |
| 123 | Nc1nc2c(c(N3CC[C@@H](N)C3)n1)CCCCc1ccccc1-2 [Example 55, 4-[(3R)-3-aminopyrrolidin-1-yl]-5,6,7,8-tetrahydrobenzo[7,8]cycloocta[1,2-d]pyrimidin-2-amine] |
| 115 | Nc1nc2c(c(N3CC[C@H](N)C3)n1)CCCCc1ccccc1-2 [Example 56, 4-[(3S)-3-aminopyrrolidin-1-yl]-5,6,7,8-tetrahydrobenzo[7,8]cycloocta[1,2-d]pyrimidin-2-amine] |
| 562 | Nc1nc2c(c(N3CC(N)C3)n1)CCCCc1ccccc1-2 [Example 57, 4-(3-aminoazetidin-1-yl)-5,6,7,8-tetrahydrobenzo[7,8]cycloocta[1,2-d]pyrimidin-2-amine] |
| 182 | Nc1nc2c(c(N3CC[C@@H]4CNC[C@@H]43)n1)CCCCc1ccccc1-2 [Example 58, 4-[(3aR,6aR)-hexahydropyrrolo[3,4-b]pyrrol-1(2H)-yl]-5,6,7,8-tetrahydrobenzo[7,8]cycloocta[1,2-d]pyrimidin-2-amine] |
| 44 | Nc1nc2c(c(N3CC4CCCNC4C3)n1)CCCc1ccccc1-2 (centres unmarked) [Example 59, 4-octahydro-6H-pyrrolo[3,4-b]pyridin-6-yl-6,7-dihydro-5H-benzo[6,7]cyclohepta[1,2-d]pyrimidin-2-amine] |
| 724 | Nc1nc2c(c(N3CCC4(CCNC4)CC3)n1)CCCc1ccccc1-2 [Example 60, 4-(2,8-diazaspiro[4.5]dec-8-yl)-6,7-dihydro-5H-benzo[6,7]cyclohepta[1,2-d]pyrimidin-2-amine] |
| 8.7 | Nc1nc2c(c(N3CCCNCCC3)n1)CCCc1ccccc1-2 [Example 61, 4-(1,5-diazocan-1-yl)-6,7-dihydro-5H-benzo[6,7]cyclohepta[2-d]pyrimidin-2-amine] |
| 389 | Nc1nc2c(c(N3CCC(N)CC3)n1)CCCc1ccccc1-2 [Example 62, 4-(4-aminopiperidin-1-yl)-6,7-dihydro-5H-benzo[6,7]cyclohepta[1,2-d]pyrimidin-2-amine] |
| 269 | Nc1nc(NCCC2CCN2)c2c(n1)-c1ccccc1CCC2 (centres unmarked) [Example 63, N^4-(2-azetidin-2-ylethyl)-6,7-dihydro-5H-benzo[6,7]cyclohepta[1,2-d]pyrimidine-2,4-diamine] |
| 1549 | Nc1nc(NC[C@H]2CCN2)c2c(n1)-c1ccccc1CCC2 [Example 64, N^4-[(2R)-azetidin-2-ylmethyl]-6,7-dihydro-5H-benzo[6,7]cyclohepta[1,2-d]pyrimidine-2,4-diamine] |
| 13 | CN1CCC(Nc2nc(N)nc3c2CCCc2ccccc2-3)CC1 [Example 65, N^4-(1-methylpiperidin-4-yl)-6,7-dihydro-5H-benzo[6,7]cyclohepta[1,2-d]pyrimidine-2,4-diamine] |
| 69 | CC1CCN(c2nc(N)nc3c2CCCc2ccccc2-3)CCN1 (centres unmarked) [Example 67, 4-(5-methyl-1,4-diazepan-1-yl)-6,7-dihydro-5H-benzo[6,7]cyclohepta[1,2-d]pyrimidin-2-amine] |
| 15 | CN1CCC(Oc2nc(N)nc3c2CCCc2ccccc2-3)CC1 [Example 68, 4-(1-Methyl-piperidin-4-yloxy)-6,7-dihydro-5H-benzo[6,7]cyclohepta[1,2-d]pyrimidin-2-ylamine] |
| 3162 | CN1CCCC(Oc2nc(N)nc3c2CCCc2ccccc2-3)C1 (centres unmarked) [Example 69, 4-(1-Methyl-piperidin-3-yloxy)-6,7-dihydro-5H-benzo[6,7]cyclohepta[1,2-d]pyrimidin-2-ylamine] |
| 37 | CN1CC[C@@H](Oc2nc(N)nc3c2CCCc2ccccc2-3)C1 [Example 70, 4-((R)-1-Methyl-pyrrolidin-3-yloxy)-6,7-dihydro-5H-benzo[6,7]cyclohepta[1,2-d]pyrimidin-2-ylamine] |
| 263 | CN1CC[C@H](Oc2nc(N)nc3c2CCCc2ccccc2-3)C1 [Example 71, 4-((S)-1-Methyl-pyrrolidin-3-yloxy)-6,7-dihydro-5H-benzo[6,7]cyclohepta[1,2-d]pyrimidin-2-ylamine] |
